Read-outs that look alike come from different tables or passages of the source. *1 amine or outer side, *2 acyl side, *3 side chain or, on linkers, in order; H or OH if unused. Where a SMILES comes first, the peptide text is derived from it. The star is where a group is joined. X2 = CCCCCCCCCCCCC/C=C/[C@@H](O)[C@H](CO)N*; Ibuprofenoyl = CC(C)Cc1ccc(C(C)C(=O)*)cc1; Myristoyl = CCCCCCCCCCCCCC(=O)*; Suc = O=C(CCC(=O)[*:2])[*:1]; Heptanoyl = CCCCCCC(=O)*; Octanoyl = CCCCCCCC(=O)*; Hexanoyl = CCCCCC(=O)*
What was measured:
Format in all cases: cell-based
[1] = tested on: C. albicans
From the text: (§1) Table I, which follows, indicates the Minimal Inhibitory Concentration (MIC) in […] of various peptides against S.aureus strain ATCC 25923(S), P. aeruginosa strain ATCC 27853(P), E. coli ATCC strain 25922(E), and C. 4albicans (CA). […] The peptides are unsubstituted at the N-terminal; substituted with an acetyl group at the N-terminal, as indicated by Ac-; substituted with an octanoyl group at the N-terminal, as indicated by Oct-; substituted with spinogosine, as indicated by Sph-; substituted with a succinyl group, as indicated by Suc-; substituted with a hexanoyl group, as indicated by Hex-; substituted with a heptanoyl group, as indicated by Hep-; substituted with a valeryl group, as indicated by Val-; substituted with a myristryl group, as indicated by Myr-; or substituted with an ibuprofyl group, as indicated by Ibu-;
(§2) The procedure for the anti-bacterial assay is based upon the guidelines of the National Committee for Clinical Laboratory Standards, Document M7-T2, Volume 8, No. 8, 1988, which document is entirely incorporated herein by reference.
(§3) Stock solutions of peptides, with and without the appropriate substitutions, were prepared at a concentration of 512 μg/ml in sterile deionized distilled water and stored at −70° C.
(§4) The stock peptide solution was diluted in serial dilutions (1:2) down the wells of a microtiter plate so that the final concentrations of peptides in the wells were 0.25, 0.50, 1, 2, 4, 8, 16, 32, 64, 128 and 256 μg/ml. 1-5×10^5 CFUs/ml of either S. aureus ATCC 25923, E. coli ATCC 25922, P. aeruginosa ATCC 27853, or C. albicans, were added to the wells in full strength Mueller Hinton broth (BBL 11443) from a mid-log culture. The inoculum was standardized spectrophotometrically at 600 nm and was verified by colony counts. The plates were incubated for 16-20 hours at 37° C., and the minimal inhibitory concentration (MIC) for each peptide was determined. Minimal inhibitory concentration is defined as the lowest concentration of peptide which produces a clear well in the microtiter plate. The minimal inhibitory concentration of each of the peptides with and/or without the appropriate substitutions is given in Table I below.

[2] = tested on: E. coli ATCC strain 25922; test: Minimal Inhibitory Concentration, microtiter broth dilution
From the text: as §1, §2, §3, §4
(§5) The in vitro anti-microbial activities of the methane sulfonate derivatives were determined according to the methods described in Examples 1 and 2. The activities against ATCC strains of S. aureus, E. coli, P. aeruginosa, and C. albicans, and the hemolysis of red blood cells were compared to the parent compound (Table IV). The activities for Compound 843 (Oct-SEQ ID NO:143) methane sulfonate against clinical strains of P. aeruginosa isolated from cystic fibrosis patients were compared to the parent compound (Table V). The activity for Compound 469 (Oct-SEQ ID NO:27) methane sulfonate against P. gingivalis was compared to the parent compound (Table VI).

[3] = tested on: P. aeruginosa strain ATCC 27853; conditions: ATCC 27853
From the text: as §1, §2, §3, §4, §5

Compound | Minimal Inhibitory Concentration CA [1] [µg/mL] | Minimal Inhibitory Concentration E ([2]; ATCC strain 25922) | Minimal Inhibitory Concentration P [3] | Minimal Inhibitory Concentration CA ([1]; C. albicans, Table I) | Minimal Inhibitory Concentration E ([2]; E. coli ATCC strain 25922, Table I)
CCCCCCC(=O)N[C@@H](CC(C)C)C(=O)N[C@@H](CCCCN)C(=O)N[C@@H](CCCCN)C(=O)N[C@@H](CC(C)C)C(=O)N[C@@H](CC(C)C)C(=O)N[C@@H](CCCCN)C(=O)N[C@@H](CCCCN)C(=O)N[C@@H](CC(C)C)C(=O)N[C@@H](CCCCN)C(=O)N[C@@H](CCCCN)C(=O)N[C@@H](CC(C)C)C(N)=O [Hep-(SEQ ID NO: 110)-NH2] (Heptanoyl-LKKLLKKLKKL-NH2) | 32 | 16 µg/mL | 4 µg/mL |  | 
CCCCCC(=O)N[C@@H](CC(C)C)C(=O)N[C@@H](CCCCN)C(=O)N[C@@H](CCCCN)C(=O)N[C@@H](CC(C)C)C(=O)N[C@@H](CC(C)C)C(=O)N[C@@H](CCCCN)C(=O)N[C@@H](CCCCN)C(=O)N[C@@H](CC(C)C)C(=O)N[C@@H](CCCCN)C(=O)N[C@@H](CCCCN)C(=O)N[C@@H](CC(C)C)C(N)=O [Hex-(SEQ ID NO: 110)-NH2] (Hexanoyl-LKKLLKKLKKL-NH2) | 64 | 16 µg/mL | 8 µg/mL |  | 
CCCCCC(=O)N[C@H](C(=O)N[C@@H](C)C(=O)NCC(=O)N[C@@H](C)C(=O)N[C@H](C(=O)N[C@@H](C)C(=O)N[C@@H](CCCCN)C(=O)N[C@H](C(=O)N[C@@H](C)C(=O)NCC(=O)N[C@@H](CCCCN)C(=O)N[C@H](C(=O)N[C@@H](C)C(=O)N[C@@H](CCCCN)C(=O)N[C@H](C(=O)N[C@@H](C)C(=O)NCC(=O)N[C@@H](C)C(=O)N[C@H](C(=O)N[C@@H](C)C(N)=O)[C@@H](C)CC)[C@@H](C)CC)[C@@H](C)CC)[C@@H](C)CC)[C@@H](C)CC)[C@@H](C)CC [Hex-(SEQ ID NO: 150)-NH2] (Hexanoyl-IAGAIAKIAGKIAKIAGAIA-NH2) | 128 | 32 µg/mL | 128 µg/mL |  | 
CC[C@H](C)[C@H](NC(=O)[C@H](CCCCN)NC(=O)CNC(=O)[C@H](C)NC(=O)[C@@H](NC(=O)[C@H](CCCCN)NC(=O)[C@H](C)NC(=O)[C@@H](NC(=O)[C@H](CCCCN)NC(=O)CNC(=O)[C@H](C)NC(=O)[C@@H](NC(=O)[C@H](CCCCN)NC(=O)[C@H](C)NC(=O)[C@@H](NC(=O)[C@H](CCCCN)NC(=O)CNC(=O)[C@H](C)NC(=O)[C@@H](NC(=O)[C@H](CCCCN)NC(=O)C(C)c1ccc(CC(C)C)cc1)[C@@H](C)CC)[C@@H](C)CC)[C@@H](C)CC)[C@@H](C)CC)[C@@H](C)CC)C(=O)N[C@@H](C)C(N)=O (some centres unmarked) [Ibu-(SEQ ID NO: 27)-NH2] (Ibuprofenoyl-KIAGKIAKIAGKIAKIAGKIA-NH2) | 128 | 8 µg/mL | 4 µg/mL |  | 
CCCCCCCCCCCCCC(=O)N[C@@H](CC(C)C)C(=O)N[C@@H](CCCCN)C(=O)N[C@@H](CCCCN)C(=O)N[C@@H](CC(C)C)C(=O)N[C@@H](CC(C)C)C(=O)N[C@@H](CCCCN)C(=O)N[C@@H](CCCCN)C(=O)N[C@@H](CC(C)C)C(=O)N[C@@H](CCCCN)C(=O)N[C@@H](CCCCN)C(=O)N[C@@H](CC(C)C)C(N)=O [Myr-(SEQ ID NO: 110)-NH2] (Myristoyl-LKKLLKKLKKL-NH2) | >256 | 16 µg/mL | 16 µg/mL |  | 
CCCCCCCCCCCCCC(=O)N[C@@H](CC(C)C)C(=O)N[C@@H](CCCCN)C(=O)N[C@@H](CCCCN)C(=O)N[C@@H](CC(C)C)C(=O)N[C@@H](CC(C)C)C(=O)N[C@@H](CCCCN)C(=O)N[C@@H](CCC(=O)O)C(=O)N[C@@H](CC(C)C)C(=O)N[C@@H](CC(C)C)C(=O)N[C@@H](CCCCN)C(=O)N[C@@H](CC(C)C)C(N)=O [Myr-(SEQ ID NO: 151)-NH2] (Myristoyl-LKKLLKELLKL-NH2) | >256 | 64 µg/mL | 128 µg/mL |  | 
CCCCCCCC(=O)N[C@@H](CC(C)C)C(=O)N[C@@H](CCCCN)C(=O)N[C@@H](CCCCN)C(=O)N[C@@H](CC(C)C)C(=O)N[C@@H](CCCCN)C(=O)N[C@@H](CCCCN)C(=O)N[C@@H](CC(C)C)C(N)=O [Oct-(SEQ ID NO: 106)-NH2] (Octanoyl-LKKLKKL-NH2) |  | 128 µg/mL | 32,64 μg/ml | 64,128 μg/ml | 
CCCCCCCC(=O)N[C@@H](CC(C)C)C(=O)N[C@@H](CC(C)C)C(=O)N[C@@H](CCCCN)C(=O)N[C@@H](CCCCN)C(=O)N[C@@H](CC(C)C)C(=O)N[C@@H](CCCCN)C(=O)N[C@@H](CCCCN)C(=O)N[C@@H](CC(C)C)C(N)=O [Oct-(SEQ ID NO: 107)-NH2] (Octanoyl-LLKKLKKL-NH2) | 128 | >256 µg/mL | 256 µg/mL |  | 
CCCCCCCC(=O)N[C@@H](CCCCN)C(=O)N[C@@H](CC(C)C)C(=O)N[C@@H](CC(C)C)C(=O)N[C@@H](CCCCN)C(=O)N[C@@H](CCCCN)C(=O)N[C@@H](CC(C)C)C(=O)N[C@@H](CCCCN)C(=O)N[C@@H](CCCCN)C(=O)N[C@@H](CC(C)C)C(N)=O [Oct-(SEQ ID NO: 108)-NH2] (Octanoyl-KLLKKLKKL-NH2) | 64 | 64 µg/mL | 4 µg/mL |  | 
CCCCCCCC(=O)N[C@@H](CCCCN)C(=O)N[C@@H](CCCCN)C(=O)N[C@@H](CC(C)C)C(=O)N[C@@H](CC(C)C)C(=O)N[C@@H](CCCCN)C(=O)N[C@@H](CCCCN)C(=O)N[C@@H](CC(C)C)C(=O)N[C@@H](CCCCN)C(=O)N[C@@H](CCCCN)C(=O)N[C@@H](CC(C)C)C(N)=O [Oct-(SEQ ID NO: 109)-NH2] (Octanoyl-KKLLKKLKKL-NH2) | 32 | 16 µg/mL | 4 µg/mL |  | 
CCCCCCCC(=O)N[C@@H](CC(C)C)C(=O)N[C@@H](CCCCN)C(=O)N[C@@H](CCCCN)C(=O)N[C@@H](CC(C)C)C(=O)N[C@@H](CC(C)C)C(=O)N[C@@H](CCCCN)C(=O)N[C@@H](CCCCN)C(=O)N[C@@H](CC(C)C)C(=O)N[C@@H](CCCCN)C(=O)N[C@@H](CCCCN)C(=O)N[C@@H](CC(C)C)C(N)=O [Oct-(SEQ ID NO: 110)-NH2] (Octanoyl-LKKLLKKLKKL-NH2) | 32 | 8 µg/mL | 4 µg/mL |  | 
CCCCCCCCCCCCC/C=C/[C@@H](O)[C@H](CO)NC(=O)CCC(=O)N[C@@H](CCCCN)C(=O)N[C@H](C(=O)N[C@@H](C)C(=O)NCC(=O)N[C@@H](CCCCN)C(=O)N[C@H](C(=O)N[C@@H](C)C(=O)N[C@@H](CCCCN)C(=O)N[C@H](C(=O)N[C@@H](C)C(=O)NCC(=O)N[C@@H](CCCCN)C(=O)N[C@H](C(=O)N[C@@H](C)C(=O)N[C@@H](CCCCN)C(=O)N[C@H](C(=O)N[C@@H](C)C(=O)NCC(=O)N[C@@H](CCCCN)C(=O)N[C@H](C(=O)N[C@@H](C)C(N)=O)[C@@H](C)CC)[C@@H](C)CC)[C@@H](C)CC)[C@@H](C)CC)[C@@H](C)CC)[C@@H](C)CC [Sph-Suc-(SEQ ID NO: 27)-NH2] ({X2-Suc}-KIAGKIAKIAGKIAKIAGKIA-NH2) |  | 32 µg/mL | >256 µg/mL |  | 
Ac-KIAGKIAKIAGKIAKIAGKIA-NH2 [Ac-(SEQ ID NO: 27)-NH2] |  | 8 µg/mL | 128 µg/mL |  | 
Ac-LKKLLKKLKKL-NH2 [Ac-(SEQ ID NO: 110)-NH2] |  | 32,64 μg/ml | 8,16 μg/ml |  | 
Ac-LLKKLKKLLKKL-NH2 [Ac-(SEQ ID NO: 113)-NH2] |  | 64 µg/mL | 64 µg/mL |  | 
H-KIAGKIAKIAGKIAKIAGKIA-OH [(SEQ ID NO: 27)-OH, (Lys Ile Ala Gly Lys Ile Ala)3] |  | 8 µg/mL | 128 µg/mL |  | 
H-LKKLLKKLKKL-NH2 [(SEQ ID NO: 110)-NH2] |  |  | 32,64 μg/ml |  | 64,128 μg/ml
H-LLKKLKKLLKKL-NH2 [(SEQ ID NO: 113)-NH2] |  | 32 µg/mL | 8,16 μg/ml |  | 

From patent publication US6348445B1, “Biologically active peptides with reduced toxicity in animals and a method for preparing same” (priority 1992, dated 2002)
